{"source": "patent US20210207101A1", "about": "“Hybrid Thymus, Methods of Making, and Methods of Using to Induce Xenograft Tolerance, Restore Immunocompetence and Thymic Function” (THE TRUSTEES OF COLUMBIA UNIVERSITY IN THE CITY OF NEW YORK, priority 2018, published 2021)", "key": {"[1]": {"system": "human thymopoiesis in grafted thymi", "experiment": "Human immune cell reconstitution after transplantation of 2DG-treated or untreated pig thymi into humanized NSG mice", "type": "in vivo, mouse", "details": "100 mM 2DG for 12 hours before grafting; mice bled every 2-3 weeks", "procedure": "Using the 2DG treatment to deplete the pig thymocytes and the Hamilton syringe (Method C described above) for injection of human thymic stromal cells, a hybrid thymus was generated and tested in vivo. Specifically, two vials of fetal pig thymus were thawed. After pipetting up and down to release as many thymocytes as possible, half of the pieces were treated with 100 mM 2DG for 12 hours and the other half remained untreated. On the next day, six vials of human fetal thymus were thawed. After pipetting up and down to release as many thymocytes as possible, liberase was used to digest and release the stromal cells and make a single-cell suspension. After depletion of human CD45+ cells using magnetic-activated cell sorting (MACS), 10 million thymic stromal cells were dissolved in 150 μl of cold Matrigel at a concentration of 66,000 cells per μl. Around 10 μl of the cells (around 660,000 thymic stromal cells) were injected into each fetal pig thymus piece (either 2DG-treated and non-treated). The pieces were kept with fine forceps at room temperature for about 2 minutes until the Matrigel solidified. Then, each piece was transferred to a well of a 96-well plate containing medium with 10% human serum. […] Every 2-3 weeks following transplantation, the mice were bled, and the level of human immune cell reconstitution was evaluated."}, "pig thymocytes": {"system": "pig thymocytes", "experiment": "Ex vivo depletion of thymocytes in pig thymic fragments", "type": "cell-based", "details": "2DG 100 mM for 12 hours", "source_text": "There are different strategies to deplete the thymocytes in pig thymic fragments ex vivo, including anti-pig CD3 immunotoxin and complement-mediated toxicity (rabbit serum as source of complements plus anti-pig CD2). However, these two strategies were not effective. […] Results not shown.\n[…] The ratio of remaining live double positive CD4 and CD8 cells (DP) or single positive (SP) CD4 (SP-CD4) or SP-CD8 cells on double negative (DN) cells, which contain the stromal cells, was used as the readout."}}}
{"smiles": "O=CC[C@@H](O)[C@H](O)[C@H](O)CO", "note": "[2DG, 2-deoxyglucose]", "values": [{"measurement": "effect of treatment of pig thymic fragments on human thymopoiesis in grafted thymi", "setting": "[1]", "result": "did not affect human thymopoiesis"}, {"measurement": "ratio of remaining live DP or SP-CD4 or SP-CD8 cells on double negative (DN) cells", "setting": "pig thymocytes", "result": "lowest ratios"}]}
